These results are taken from patent publication US20140199279A1, “METHODS FOR ENHANCING THE DELIVERY OF GENE-[…]” (Bluebird Bio, Inc., priority 2011, published 2014).

Experiment [1] concerns bone marrow CD34+ cells. The experiment is described as follows: Puromycin selection of HPV654-transduced bone marrow CD34+ cells; PCR of CFU-GM colonies for lentiviral vector. The following applies: BM CD34+ cells, 5 μg/ml puromycin for 24 hours, 14 days growth. The class given is cell-based, human.
Procedure: (§1) Viral titers were determined by qPCR analysis of transduced NIH3T3 cells with proviral copy number controls.
(§2) Either fresh bone marrow (BM, Lonza, Walkersville, Md.) or cryopreserved G-CSF-mobilized peripheral blood (mPB, AllCells, Emeryville, Calif.) CD34^+ purified cells were used from normal human donors. At a cell concentration of 1×10^6/ml, the CD34 cells were prestimulated for 24 hours (BM) or 18 hours (mPB) in StemPro-34 SFM supplemented with L-glutamine, 100 ng/ml hSCF, 100 ng/ml hTPO, 100 ng/ml hFLT3-L and 20 ng/ml hIL-3 for BM or 60 ng/ml hIL-3 for mPB. The cells were then resuspended at a concentration of 4×10^6 (BM) or 3×10^6 (mPB) cells/ml in the same medium containing cytokines with additional supplementation with 8 μg/ml protamine sulfate and the HPV654 supernatant at either 10% (final exposed titer of 3×10^7 IU/ml with MOI of 7.5 for BM and 1×10^7 IU/ml with MOI of 3.3 for mPB) or 50% (final exposed titer of 1.5×108 IU/ml with MOI of 37.5 for BM and 5×10^7 IU/ml with MOI of 16.7 for mPB). […] Each colony was then analyzed for the presence of the lentiviral vector by PCR analysis of individual colonies using primers for erythropoietin gene for BM and human actin gene for mPB and primers specific for the lentiviral vector (GAG for BM and LTR for mPB).
The test system of experiment [2] is G-CSF mobilized peripheral blood CD34+ cells. The experiment is described as follows: Puromycin selection of HPV654-transduced G-CSF mobilized peripheral blood CD34+ cells; PCR of CFU-GM colonies for lentiviral vector. The class given is cell-based, human.
Procedure: as §1, §2

The structures appear in SMILES notation. Values joined by “and” are separate entries in the source; they are usually repeats but may differ in a detail not shown here. Equal entries are not always repeated.

On to `COc1ccc(C[C@H](N)C(=O)N[C@H]2[C@@H](O)[C@H](n3cnc4c(N(C)C)ncnc43)O[C@@H]2CO)cc1` [puromycin], for which the “colonies positive for the lentiviral vector (transduced cells)” value in experiment [1] (10% HPV654 supernatant) is 100%; in experiment [1] (50% HPV654 supernatant), 79%; in experiment [2] it was 88% and 100%.
